≈ marks a conversion by molar mass, not a printed value. Structures can show the parent of a compound that is named as a salt.
What was measured:
[1] = aqueous solubility of the crystalline salt compared with free base and other salts; format: physicochemical
[2] = pKa of the α-hydroxyl secondary amine functional group; format: physicochemical
Text: (§1) At lower pH values (i.e., at a pH of 1 to 4 in various buffer systems), solubility of carvedilol is limited by the solubility of its protonated form or its corresponding salt formed in-situ.

physchem = details: thermodynamic from solid
Text: as §1

[3] = solubility of the in-situ salt in acidic medium (simulated gastric fluid); format: physicochemical; details: generated in-situ in an acidic medium, such as simulated gastric fluid
α-adrenergic = details: cited from earlier work
β-adrenoreceptor = details: cited from earlier work

COc1ccccc1OCCNCC(O)COc1cccc2[nH]c3ccccc3c12 (stereo not shown) [carvedilol hydrobromide]
solubility compared to the free base of carvedilol ([1]; novel crystalline form): much higher solubility | aqueous solubility relative to free base or other crystalline salts (hydrochloride) ([1]; pure crystalline solid): much higher aqueous solubility

COc1ccccc1OCCNCC(O)COc1cccc2[nH]c3ccccc3c12 (racemic) [Carvedilol]
pKa [2]: 7.8 | solubility (physchem; pH 5, aqueous buffer): ~100 µg/mL (≈ 246 µM) | solubility (physchem; pH 7, aqueous buffer): ~23 µg/mL (≈ 56.6 µM) | solubility (physchem; pH 9, aqueous buffer): < 1 µg/mL

COc1ccccc1OCCNCC(O)COc1cccc2[nH]c3ccccc3c12.Cl (stereo not shown) [hydrochloride salt of carvedilol]
solubility relative to the protonated form of carvedilol [3]: less soluble

COc1ccccc1OCCNC[C@@H](O)COc1cccc2[nH]c3ccccc3c12 (single isomer, unassigned) [R(+) enantiomer]
α-adrenergic blocking activity (α-adrenergic): exhibited

COc1ccccc1OCCNC[C@H](O)COc1cccc2[nH]c3ccccc3c12 (single isomer, unassigned) [S(−) enantiomer]
nonselective β-adrenoreceptor blocking activity (β-adrenoreceptor): exhibited | α-adrenergic blocking activity (α-adrenergic): exhibited
